Peptide text beside a SMILES is read from it.
Experiments:
[1] = tested on: immune cells in lungs and spleens; test: Immunofluorescence of immune cell infiltration, spleen and lung, lung metastasis model; type: in vivo, BALB/c mice
Protocol: Immunofluorescence analysis was used for antigen localization and quantification. For PDPN immunofluorescence staining, melanoma cells (A375, A875) were seeded in coverslips, cultured for 24 h, and fixed using 4% paraformaldehyde for 15 min at room temperature (RT). The cells were then permeabilized with 0.2% Triton X-100 in PBS for 10 min. Cells were blocked using 1% bovine serum albumin (BSA) in PBS for 30 min at RT, and incubated with the primary antibody overnight at 4 ℃. Afterwards, cells were washed three times with PBS containing 0.01% Triton X-100 for 5 min, and incubated with Alexa Fluor 568–conjugated secondary antibodies at RT for 1 h. Lastly, the nuclei were dyed with 4’,6-diamidino-2-phenylindole (DAPI) for 5 min at RT, and the slides were imaged using a NIKON laser scanning confocal microscope. To further verify the specificity binding ability of CY12-RP2 with PDPN, immunofluorescence was detected for analysis in melanoma cells. Briefly, A375 or A875 cells were incubated with CY12-RP2 at a concentration of 5 μM for 10 h at 37 ℃, and then washed with DMEM to remove the unbound peptide. The anti-PDPN primary antibody was then incubated for 4 h at RT. Further experimental procedures were performed as described above. To determine the immune cell infiltration and proportion changes in the lungs and spleens in the pulmonary metastasis mouse model, sequential frozen slices (12 μm) were prepared and incubated with CD3, CD4, CD8, Foxp3, CD56, F4/80, and CD11c primary antibodies for 1 h, and then incubated with Alexa Fluor 488-conjugated goat anti-mouse F(ab’)2 and Alexa Fluor 647-conjugated goat anti-mouse F(ab’)2 in PBS containing 1% BSA and 1% goat serum for 30 min. All incubations were conducted under coverslips at RT, and then repeatedly washed 3 times with PBS. Coverslips were mounted after staining cell nuclei with DAPI, and imaged using a NIKON laser scanning confocal microscope.

[2] = tested on: melanoma cells; test: Melanoma cell / stimulated PBMC co-culture killing; type: cell-based; details: PBMC ratios 0%-50%, 48 h, crystal violet
Protocol: PBMCs (Shenzhen People's Hospital. Shenzhen, China)) from a healthy donor were isolated using a density gradient centrifugation procedure. Firstly, the immune cell proportions analysis of PBMCs was measured using flow cytometry. We then investigated the effect of CY12-RP2 on the cytokines in PBMCs using ELISA assays. Briefly, PBMCs (5 × 10^5 cells/well) were cultured in 24-well plates with RPMI1640 containing 10% FBS for 24 h, and the cells were stimulated with CY12-RP2 (50 µM) for 48 h. Afterward, supernatants were collected for subsequent assays. […] The experimental results were then observed by crystal violet staining after 48 h.

[3] = tested on: A875 cells; test: Colony formation, A875; type: cell-based
[4] = tested on: A375 cells; test: Transwell matrigel invasion, A375; type: cell-based; details: transwell matrigel, 0, 5, 25 μM, 48 h
Protocol: For invasion assay, matrigel (Corning, New York, USA) was coated on the upper surface of the upper chamber. The upper chamber was filled with DMEM medium containing 2% FBS, while the lower chamber contained a medium supplemented with 20% FBS. In brief, melanoma cells (A375 GFP, A875 GFP, A375 PDPN^−/−, and A875 PDPN^+/+ cells) were seeded in the upper chamber of the transwell plate (Corning, New York, USA) at about 5 × 10^4 cells/well with the medium as described above. For peptide functionality experiments, A375 and A875 cells were seeded in the upper chamber of the transwell plate at a density of 5 × 10^4 cells/well with various peptide concentrations (0 μM, 5 μM, 25 μM). Transwell inserts were fixed using 4% paraformaldehyde after 48 h cell invasion, and crystalline violet was used for staining. The quantities of invading cells were quantified using ImageJ software (NIH).

[5] = tested on: A375 cells; test: Wound healing (migration), A375; type: cell-based; details: wound healing, 0, 5, 25 μM, 24 h or 48 h
Protocol: A375 GFP, A875 GFP, A375 PDPN^−/−, and A875 PDPN^+/+ cells were all seeded in 12-well plates at a density of 5 × 10^5 cells/well. When the cells reached 100% confluence the next day, the straight wound was scraped in each cultured well with a 20 µL pipette tip. Then the cells were washed repeatedly with complete DMEM to remove the cellular debris, and the medium was changed to a low serum medium containing 0.05% FBS. The scratch-treated cells were subsequently cultured for an additional indicated time and imaged at 0 h, 12 h, 24 h and 48 h. Quantification of wound closure was accomplished by measuring the distance between the phase contrast images’ anterior edges of the contralateral surfaces using ImageJ software. As for peptide (CY12-RP2) function experiments, images of phase contrast for A375 GFP and A875 GFP cells were captured at 0 h before peptide administration. The cells were then treated with CY12-RP2 (0 μM, 5 μM, 25 μM) for 24 h or 48 h, and then images were acquired again. Handling of the experimental results were carried out as previously described.

[6] = Serum hepatic function index, xenograft nude mice (ELISA); type: in vivo, BALB/c nude mice; details: vs control, 25 and 100 mg/kg
Protocol: Tumorigenesis assays were conducted in vivo using BALB/c nude mice and BALB/c mice from Guangdong Medical Laboratory Animal Center. The animal study was reviewed and approved by the Administrative Committee on Animal Research of Shenzhen International Graduate School, Tsinghua University (Ethical Development No. 16, 10 November 2021). Samples with 5 × 10^5 A375 or B16F10-Luc melanoma cells were diluted in 100 μL PBS and injected subcutaneously into 6- to 8-week-old female BALB/c nude mice or BALB/c mice. 5 days later, the mice were treated with CY12-RP2 by tail vein administration at various doses (25 mg/kg and 100 mg/kg) every two days. The tumor volume and body weight were measured every 2 days, with the calculation of the tumor volume under the assumption of an ellipsoidal tumor as: tumor volume = length × width^2/2. Tumors from BALB/c nude mice were collected and photographed on day 21, while tumors from the allograft mouse model were measured using bioluminescence imaging. The blood collected from the eyes of BALB/c nude mice were stored at 4 °C for 24 h and then centrifuged for 15 min under the indicated conditions (4 °C, 3000 rpm). The supernatant was collected and assayed for drug toxicity using kits, including AST, ALT, TG, and γ-GT. […]
Fig. S5: Effects and toxicity of CY12-RP2 in vivo […]
(E) Serum ALT, AST, TG, and γ-GT levels of the orthotopic xenografts model were
measured by ELISA. (F) H&E staining of liver, heart, spleen, lung, and kidney treated

## CC(C)C[C@H](NC(=O)[C@H](Cc1ccc(O)cc1)NC(=O)[C@@H](N)[C@@H](C)O)C(=O)N[C@@H](CS)C(=O)N[C@H](C(=O)N[C@@H](C)C(=O)N[C@@H](CS)C(=O)N[C@@H](CC(=O)O)C(=O)N[C@@H](Cc1ccc(O)cc1)C(=O)N[C@H](C(=O)N[C@@H](Cc1c[nH]cn1)C(=O)N[C@@H](Cc1c[nH]cn1)C(=O)O)[C@@H](C)O)[C@@H](C)O [CY12-RP2] (H-TYLCTACDYTHH-OH; N-terminus and C-terminus assumed)
[1]; immunofluorescence
  M2-type macrophages: decreased proportion
  NK cells and M1-type macrophages: increased proportions
[1]; multiplex immunofluorescence
  infiltration of CD3 + CD4 + T cells and CD3 + CD8 + T cells: remarkable increase
  infiltration of Treg cells: reduction
[2]
  viability of tumor cells with CY12-RP2-pretreated PBMC: declined significantly
[3]
  colony formation: only having inhibitory effects on A875 cells at high concentrations
[4]
  invasion: significantly suppressed the invasion of A375 cells in a dose-dependent manner
[5]
  migration: inhibited migration at the corresponding time both in A375 and A875 cells, but A375 cells were more susceptible
[6]
  ALT: not significantly changed
  AST: not significantly changed
  TG: increased
  γ-GT: increased
